# Source: publication PMC3119665, “A New Drug Design Targeting the Adenosinergic System for Huntington's Disease” (PLoS ONE, 2011)
# Key:
# Chemokine CX3CR1 = biological target: T1, Chemokine CX3CR1 (Homo sapiens, UniProt P49238); test: Radioligand binding panel (Table S1); conditions: 10 μM T1-11, n 2
# T1 construct: purchased MDS Pharma Services Taiwan
# [1] = test system: Inositol Trisphosphate IP3; test: Radioligand binding panel (Table S1); design: species or system rat; conditions: 10 μM T1-11, n 2
# [2] = test system: Muscarinic, Oxotremorine-M; test: Radioligand binding panel (Table S1); design: species or system rat; conditions: 10 μM T1-11, n 2
# [3] = test system: GABAA, Chloride Channel, TBPS; test: Radioligand binding panel (Table S1); design: species or system rat; conditions: 10 μM T1-11, n 2
# [4] = test system: Atrial Natriuretic Factor (ANF); test: Radioligand binding panel (Table S1); design: species or system guinea pig; conditions: 10 μM T1-11, n 2
# Lipoxygenase 12-LO = biological target: T2, Lipoxygenase 12-LO (Homo sapiens, UniProt P18054); test: Radioligand binding panel (Table S1); conditions: 10 μM T1-11, n 2
# T2 construct: purchased MDS Pharma Services Taiwan
# [5] = test system: Imidazoline I2, Peripheral; test: Radioligand binding panel (Table S1); design: species or system rat; conditions: 10 μM T1-11, n 2
# [6] = biological target: T3, Calcitonin Gene-Related, Peptide CGRP1 (Homo sapiens, UniProt O60894+Q16602); test: Radioligand binding panel (Table S1); conditions: 10 μM T1-11, n 2
# T3 construct: purchased MDS Pharma Services Taiwan
# [7] = test system: Adrenergic β, Non-Selective; test: Radioligand binding panel (Table S1); design: species or system rat; conditions: 10 μM T1-11, n 2
# [8] = biological target: T4, Nicotinic Acetylcholine α1, Bungarotoxin (Homo sapiens, UniProt P02708+P07510+Q07001); test: Radioligand binding panel (Table S1)
# T4 construct: purchased MDS Pharma Services Taiwan
# Phosphodiesterase PDE5 = biological target: T5, Phosphodiesterase PDE5 (Homo sapiens, UniProt O76074); test: Radioligand binding panel (Table S1); conditions: 10 μM T1-11, n 2
# T5 construct: purchased MDS Pharma Services Taiwan
# Nicotinic Acetylcholine = test: Radioligand binding panel (Table S1); design: species or system human; conditions: 10 μM T1-11, n 2
# Transporter, GABA = biological target: T6, Transporter, GABA (Rattus norvegicus, UniProt P23978); test: Radioligand binding panel (Table S1); conditions: 10 μM T1-11, n 2
# T6 construct: purchased MDS Pharma Services Taiwan
# [9] = test system: Platelet-Derived Growth Factor (PDGF); test: Radioligand binding panel (Table S1); design: species or system mouse; conditions: 10 μM T1-11, n 2
# Purinergic P 2X = test: Radioligand binding panel (Table S1); design: species or system rabbit; conditions: 10 μM T1-11, n 2
# Glutamate, Non-Selective = test: Radioligand binding panel (Table S1); design: species or system rat; conditions: 10 μM T1-11, n 2
# Tachykinin NK2 = biological target: T7, Tachykinin NK2 (Homo sapiens, UniProt P21452); test: Radioligand binding panel (Table S1); conditions: 10 μM T1-11, n 2
# T7 construct: purchased MDS Pharma Services Taiwan
# Chemokine CXCR2 (IL-8RB) = biological target: T8, Chemokine CXCR2 (IL-8RB) (Homo sapiens, UniProt P25025); test: Radioligand binding panel (Table S1); conditions: 10 μM T1-11, n 2
# T8 construct: purchased MDS Pharma Services Taiwan
# [10] = test system: Transforming Growth Factor-β (TGF-β); test: Radioligand binding panel (Table S1); design: species or system mouse; conditions: 10 μM T1-11, n 2
# [11] = test system: Serotonin (5-Hydroxytryptamine) 5-HT2, Non-Selective; test: Radioligand binding panel (Table S1); design: species or system rat; conditions: 10 μM T1-11, n 2
# GABAB1B = biological target: T9, GABAB1B (Homo sapiens, UniProt Q9UBS5); test: Radioligand binding panel (Table S1); conditions: 10 μM T1-11, n 2
# T9 construct: purchased MDS Pharma Services Taiwan
# Somatostatin sst5 = biological target: T10, Somatostatin sst5 (Homo sapiens, UniProt P35346); test: Radioligand binding panel (Table S1); conditions: 10 μM T1-11, n 2
# T10 construct: purchased MDS Pharma Services Taiwan
# [12] = test system: GABAA, Benzodiazepine, Central, Flunitrazepam; test: Radioligand binding panel (Table S1); design: species or system rat; conditions: 10 μM T1-11, n 2
# Lipoxygenase 5-LO = biological target: T11, Lipoxygenase 5-LO (Homo sapiens, UniProt P09917); test: Radioligand binding panel (Table S1); conditions: 10 μM T1-11, n 2
# T11 construct: purchased MDS Pharma Services Taiwan
# Melatonin MT2 = biological target: T12, Melatonin MT2 (Homo sapiens, UniProt P49286); test: Radioligand binding panel (Table S1); conditions: 10 μM T1-11, n 2
# T12 construct: purchased MDS Pharma Services Taiwan
# Dopamine D2L = biological target: T13, Dopamine D2L (Homo sapiens, UniProt P14416); test: Radioligand binding panel (Table S1); conditions: 10 μM T1-11, n 2
# T13 construct: purchased MDS Pharma Services Taiwan
# Muscarinic M4 = biological target: T14, Muscarinic M4 (Homo sapiens, UniProt P08173); test: Radioligand binding panel (Table S1); conditions: 10 μM T1-11, n 2
# T14 construct: purchased MDS Pharma Services Taiwan
# [13] = biological target: T15, adenosine transporter (ENT1) (Rattus norvegicus, UniProt O54698); test: Adenosine uptake by PC12 cells; format: cell-based
# T15 construct: endogenous in cells; host or cells: PC12
# Method: For adenosine uptake of PC12, cells were seeded approximately 16 h before each uptake assay at ∼2×10^5 cells per well in 24-well plates coated with poly-L-lysine. To perform adenosine uptake assays, cells were washed with Krebs Ringer-Henseleit buffer [125 mM NaCl, 4.8 mM KCl, 1.3 mM CaCl2, 1.2 mM MgSO4, 1.2 mM KH2PO4, 5.6 mM glucose, 10 µM pargyline, and 10 mM HEPES (pH 7.2)] and incubated in the same buffer for 10 min at 37°C in the presence or absence of the indicated reagent(s). Adenosine uptake was initiated by adding [^3H]adenosine at the indicated concentration (0.5 µCi/mmol) at 37°C. At the end of the incubation, cells were placed on ice, washed twice with ice-cold Krebs Ringer-Henseleit buffer to remove free [^3H]adenosine, lysed with 1% Triton X-100, and added to scintillation vials to count the radioactivity. Non-specific uptake was determined as the uptake performed in the presence of 100 µM adenosine, and was subtracted from the total adenosine uptake.
# BDNF = test: Cortical BDNF transcript, quantitative RT-PCR; format: in vivo; conditions: R6/2 mice, 0.05 mg/ml in drinking water
# Method: Total RNA was isolated from the cortex of the indicated mice using the TriReagent kit (Molecular Research Center, Cincinnati, OH, USA), treated with RNase-free DNase (RQ1; Promega) to remove potential contamination by genomic DNA, and transcribed into complementary (c)DNA using Superscript* II reverse transcriptase. A real-time quantitative PCR was performed using a TaqMan kit (PE Applied Biosystems, Foster City, CA, USA) on a TaqMan ABI 7700 Sequence Detection System (PE Applied Biosystems) using heat-activated TaqDNA polymerase (Amplitaq Gold; PE Applied Biosystems). The PCR mixtures were incubated at 50°C for 2 min and 95°C for 10 min, and then 40 PCR cycles were conducted (95°C for 15 s and 65°C for 1 min). The sequences of primers are listed below: for BDNF (the target gene), 5′-[…]-3′ and 5′-[…]-3′; and for GAPDH (the reference gene), 5′[…]-3′ and 5′-[…]-3′. Independent reverse-transcription PCRs were performed using the same cDNA for both the indicated target gene and reference gene (GAPDH). […] Data were analyzed using ABI 7700 operating software to determine the threshold cycle (CT) above the background for each reaction. The relative transcript amount of the target gene, which was calculated using standard curves of serial RNA dilutions, was normalized to that of GAPDH of the same RNA.
# T15 sequence (O54698 whole entry): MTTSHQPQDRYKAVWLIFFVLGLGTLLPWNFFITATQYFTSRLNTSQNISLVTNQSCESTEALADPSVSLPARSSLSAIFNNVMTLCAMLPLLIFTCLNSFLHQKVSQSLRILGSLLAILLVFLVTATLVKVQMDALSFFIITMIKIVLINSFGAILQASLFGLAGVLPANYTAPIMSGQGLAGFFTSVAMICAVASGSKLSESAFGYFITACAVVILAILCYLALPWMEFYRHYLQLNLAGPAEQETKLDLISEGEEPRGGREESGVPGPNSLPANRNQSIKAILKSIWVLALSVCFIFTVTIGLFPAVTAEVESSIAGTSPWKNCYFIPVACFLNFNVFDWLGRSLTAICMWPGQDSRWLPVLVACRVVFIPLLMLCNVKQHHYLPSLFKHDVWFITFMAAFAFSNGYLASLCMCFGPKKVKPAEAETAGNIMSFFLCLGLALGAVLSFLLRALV
# T1 sequence (P49238 whole entry): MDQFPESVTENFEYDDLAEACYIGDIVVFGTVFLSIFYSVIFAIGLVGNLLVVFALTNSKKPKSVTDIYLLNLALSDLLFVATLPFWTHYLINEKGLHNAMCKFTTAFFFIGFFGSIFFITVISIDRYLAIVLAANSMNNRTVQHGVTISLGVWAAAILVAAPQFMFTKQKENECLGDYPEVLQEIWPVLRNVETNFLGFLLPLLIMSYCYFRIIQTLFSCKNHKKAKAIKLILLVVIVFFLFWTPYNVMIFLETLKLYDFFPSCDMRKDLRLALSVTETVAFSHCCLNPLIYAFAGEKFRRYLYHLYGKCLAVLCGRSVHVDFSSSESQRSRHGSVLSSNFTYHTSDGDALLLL
# T4 sequence (P02708 21-457): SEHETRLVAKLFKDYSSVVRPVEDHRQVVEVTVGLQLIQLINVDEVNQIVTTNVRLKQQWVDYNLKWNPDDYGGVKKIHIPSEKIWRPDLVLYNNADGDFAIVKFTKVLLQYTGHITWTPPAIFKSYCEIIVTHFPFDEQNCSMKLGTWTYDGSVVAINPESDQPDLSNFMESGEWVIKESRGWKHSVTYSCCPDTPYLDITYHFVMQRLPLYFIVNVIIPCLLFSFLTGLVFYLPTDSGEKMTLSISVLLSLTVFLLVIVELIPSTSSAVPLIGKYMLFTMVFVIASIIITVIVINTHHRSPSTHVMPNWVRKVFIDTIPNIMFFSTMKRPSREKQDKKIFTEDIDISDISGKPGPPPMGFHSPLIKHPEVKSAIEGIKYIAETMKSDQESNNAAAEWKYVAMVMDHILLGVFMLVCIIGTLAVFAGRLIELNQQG
# T4 sequence (P11230 24-501, further chain): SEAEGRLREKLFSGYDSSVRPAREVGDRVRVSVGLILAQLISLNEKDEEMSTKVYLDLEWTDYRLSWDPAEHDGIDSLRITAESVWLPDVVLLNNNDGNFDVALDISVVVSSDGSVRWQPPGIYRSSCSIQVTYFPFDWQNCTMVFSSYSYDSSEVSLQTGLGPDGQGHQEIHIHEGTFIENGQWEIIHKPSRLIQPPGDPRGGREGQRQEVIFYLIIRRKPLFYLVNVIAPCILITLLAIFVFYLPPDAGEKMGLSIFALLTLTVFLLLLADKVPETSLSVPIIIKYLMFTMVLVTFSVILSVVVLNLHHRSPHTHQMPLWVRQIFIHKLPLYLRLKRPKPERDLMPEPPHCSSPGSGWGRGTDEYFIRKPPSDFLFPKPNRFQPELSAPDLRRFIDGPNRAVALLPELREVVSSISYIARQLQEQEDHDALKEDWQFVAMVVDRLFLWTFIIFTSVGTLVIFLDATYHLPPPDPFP
# T4 sequence (Q07001 22-517): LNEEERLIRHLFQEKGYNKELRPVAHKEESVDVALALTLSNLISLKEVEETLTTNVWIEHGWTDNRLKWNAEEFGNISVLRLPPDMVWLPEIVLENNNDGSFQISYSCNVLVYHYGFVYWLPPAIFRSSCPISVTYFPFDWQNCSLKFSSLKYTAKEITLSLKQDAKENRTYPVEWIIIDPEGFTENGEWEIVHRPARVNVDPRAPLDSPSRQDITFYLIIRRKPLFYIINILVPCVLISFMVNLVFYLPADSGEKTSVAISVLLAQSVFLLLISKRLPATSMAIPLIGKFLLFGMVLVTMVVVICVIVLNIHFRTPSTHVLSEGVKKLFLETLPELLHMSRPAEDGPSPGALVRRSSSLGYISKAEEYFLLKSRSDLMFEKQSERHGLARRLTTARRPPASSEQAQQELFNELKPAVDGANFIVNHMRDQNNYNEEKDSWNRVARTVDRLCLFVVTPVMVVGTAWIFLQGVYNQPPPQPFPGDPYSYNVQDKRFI
# T4 sequence (P07510 23-517): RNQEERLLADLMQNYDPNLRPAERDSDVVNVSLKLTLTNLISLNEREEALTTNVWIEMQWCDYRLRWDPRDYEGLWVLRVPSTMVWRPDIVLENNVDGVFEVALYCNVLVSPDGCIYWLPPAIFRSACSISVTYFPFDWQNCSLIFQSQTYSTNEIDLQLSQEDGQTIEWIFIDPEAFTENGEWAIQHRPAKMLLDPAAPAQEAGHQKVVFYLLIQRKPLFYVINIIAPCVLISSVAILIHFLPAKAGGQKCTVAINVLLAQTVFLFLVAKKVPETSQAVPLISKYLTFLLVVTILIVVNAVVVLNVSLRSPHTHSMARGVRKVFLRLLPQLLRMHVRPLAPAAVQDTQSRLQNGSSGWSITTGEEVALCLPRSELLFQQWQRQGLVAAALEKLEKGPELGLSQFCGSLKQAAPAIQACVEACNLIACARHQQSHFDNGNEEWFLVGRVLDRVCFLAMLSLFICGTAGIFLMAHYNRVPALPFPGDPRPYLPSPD
# T7 sequence (P21452 whole entry): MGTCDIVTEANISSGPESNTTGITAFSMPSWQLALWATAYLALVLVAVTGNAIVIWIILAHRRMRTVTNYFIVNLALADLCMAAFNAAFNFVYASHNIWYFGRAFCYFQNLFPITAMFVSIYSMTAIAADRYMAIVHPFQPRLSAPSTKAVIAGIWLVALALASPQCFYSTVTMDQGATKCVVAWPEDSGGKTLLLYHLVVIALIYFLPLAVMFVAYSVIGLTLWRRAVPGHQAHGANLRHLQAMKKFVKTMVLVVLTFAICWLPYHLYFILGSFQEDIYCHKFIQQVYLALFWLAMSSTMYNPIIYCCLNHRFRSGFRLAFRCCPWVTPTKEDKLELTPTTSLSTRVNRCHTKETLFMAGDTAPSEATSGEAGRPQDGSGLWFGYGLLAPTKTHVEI
# T13 sequence (P14416 whole entry): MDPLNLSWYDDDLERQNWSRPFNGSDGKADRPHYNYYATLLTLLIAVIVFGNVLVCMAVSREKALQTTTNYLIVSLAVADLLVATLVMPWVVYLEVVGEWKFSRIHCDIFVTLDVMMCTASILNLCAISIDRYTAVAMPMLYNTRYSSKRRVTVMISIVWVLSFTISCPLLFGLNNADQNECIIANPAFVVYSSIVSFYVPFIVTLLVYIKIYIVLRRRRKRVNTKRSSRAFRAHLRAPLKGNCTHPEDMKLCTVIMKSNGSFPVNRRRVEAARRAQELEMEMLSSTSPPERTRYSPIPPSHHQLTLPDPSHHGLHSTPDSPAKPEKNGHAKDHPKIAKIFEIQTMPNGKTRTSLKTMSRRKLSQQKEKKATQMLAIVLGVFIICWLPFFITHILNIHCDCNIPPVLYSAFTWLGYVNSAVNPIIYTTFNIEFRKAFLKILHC
# T10 sequence (P35346 whole entry): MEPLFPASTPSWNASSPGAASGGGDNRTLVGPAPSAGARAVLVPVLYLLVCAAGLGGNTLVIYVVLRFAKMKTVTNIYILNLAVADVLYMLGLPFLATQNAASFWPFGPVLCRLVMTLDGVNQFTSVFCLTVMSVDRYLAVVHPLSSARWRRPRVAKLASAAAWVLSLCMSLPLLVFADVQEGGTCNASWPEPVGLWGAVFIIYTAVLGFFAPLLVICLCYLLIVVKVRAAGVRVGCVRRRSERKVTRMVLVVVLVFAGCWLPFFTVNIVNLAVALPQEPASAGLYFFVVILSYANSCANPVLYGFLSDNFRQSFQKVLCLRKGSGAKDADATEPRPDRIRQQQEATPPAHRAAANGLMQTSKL
# T12 sequence (P49286 whole entry): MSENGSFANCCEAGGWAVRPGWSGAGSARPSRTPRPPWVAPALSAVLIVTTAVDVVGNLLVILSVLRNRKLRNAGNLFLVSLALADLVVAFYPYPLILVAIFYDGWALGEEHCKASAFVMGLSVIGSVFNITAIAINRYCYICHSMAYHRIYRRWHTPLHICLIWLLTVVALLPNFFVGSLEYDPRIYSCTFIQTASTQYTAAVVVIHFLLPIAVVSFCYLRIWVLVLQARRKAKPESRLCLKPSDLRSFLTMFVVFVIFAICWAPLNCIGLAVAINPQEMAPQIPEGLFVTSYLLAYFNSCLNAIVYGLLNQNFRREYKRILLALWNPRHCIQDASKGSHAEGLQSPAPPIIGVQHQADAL
smiles,measurement,setting,value
"OC[C@H]1O[C@@H](n2cnc3c(NCc4ccc(O)cc4)ncnc32)[C@H](O)[C@@H]1O [T1-11, N ^6-(4-hydroxybenzyl)adenine riboside]",inhibition at 10 µM,Chemokine CX3CR1,-1%
same,% Inhibition,[1],3%
same,% Inhibition,[2],-7%
same,% Inhibition,[3],6%
same,% Inhibition,[4],5%
same,inhibition at 10 µM,Lipoxygenase 12-LO,9%
same,% Inhibition,[5],10%
same,inhibition at 10 µM,[6],6%
same,% Inhibition,[7],10%
same,inhibition at 10 µM,[8],3%
same,inhibition at 10 µM,Phosphodiesterase PDE5,4%
same,% Inhibition,Nicotinic Acetylcholine,6%
same,inhibition at 10 µM,"Transporter, GABA",8%
same,% Inhibition,[9],-4%
same,% Inhibition,Purinergic P 2X,11%
same,% Inhibition,"Glutamate, Non-Selective",-1%
same,inhibition at 10 µM,Tachykinin NK2,3%
same,inhibition at 10 µM,Chemokine CXCR2 (IL-8RB),0%
same,% Inhibition,[10],-1%
same,% Inhibition,[11],15%
same,inhibition at 10 µM,GABAB1B,-5%
same,inhibition at 10 µM,Somatostatin sst5,4%
same,% Inhibition,[12],6%
same,inhibition at 10 µM,Lipoxygenase 5-LO,25%
same,inhibition at 10 µM,Melatonin MT2,-20%
same,inhibition at 10 µM,Dopamine D2L,13%
same,inhibition at 10 µM,Muscarinic M4,9%
same,Function,"[13]; Adenosine transporter (ENT1), suppressed the uptake of adenosine",inhibitor
same,Inhibition of adenosine uptake,[13]; PC12 cells,inhibited adenosine uptake by PC12 cells in a dose-dependent manner
same,Cortical BDNF,BDNF,contained more cortical BDNF than R6/2 mice that received no treatment
